{"source": "patent US9249102B2", "about": "(priority 2012, dated 2016)", "system": "Haemonchus contortus", "test": "Method A: Haemonchus contortus L1 larvae, microtitre plate screen", "conditions": "96 h, read-out: motility inhibition", "data": [{"smiles": "O=C(CO[C@H]1CC[C@H](Nc2ccc([N+](=O)[O-])c(C(F)(F)F)c2)CC1)N1CCN(C(=O)c2nc3cc(C(F)(F)F)ccc3s2)CC1", "note": "[Compound 338, 2-[(4-[[4-nitro-3-(trifluoromethyl)phenyl]amino]cyclohexyl)-oxy]1-[4-[5-(trifluoromethyl)benzothiazole-2-carbonyl]piperazin-1-yl]ethan-1-one]", "values": [{"measurement": "inhibition at 5 µg/mL", "value": "≥ 90", "unit": "%"}]}, {"smiles": "O=C(NCCO[C@H]1CC[C@H](Nc2ccc([N+](=O)[O-])c(C(F)(F)F)c2)CC1)C(=O)Nc1ccc2cc(C(F)(F)F)ccc2c1", "note": "[Compound 173]", "values": [{"measurement": "inhibition at 5 µg/mL", "value": "≥ 90", "unit": "%"}]}, {"smiles": "C[C@@H]1CN(Cc2ccc3cc(F)ccc3c2)[C@@H](C)CN1C(=O)CO[C@H]1CC[C@H](Nc2ccc([N+](=O)[O-])c(C(F)(F)F)c2)CC1", "note": "[Compound 357, 1-[(2R,5S)-4-(6-fluoro-naphthalen-2-ylmethyl)-2,5-dimethyl-piperazin-1-yl]-2-[4-(4-nitro-3-trifluoromethyl-phenylamino)-cyclohexyloxy]-ethanone]", "values": [{"measurement": "inhibition at 5 µg/mL", "value": "≥ 90", "unit": "%"}]}, {"smiles": "N#Cc1ccc(N[C@H]2CC[C@H](OCC(=O)N3CCN(Cc4oc5ccc(Cl)cc5c4Cl)CC3)CC2)cc1C(F)(F)F", "note": "[Compound 315, 4-(4-{2-[4-(3,5-dichloro-benzofuran-2-ylmethyl)-piperazin-1-yl]-2-oxo-ethoxy}-cyclohexylamino)-2-trifluoromethyl-benzonitrile]", "values": [{"measurement": "inhibition at 5 µg/mL", "value": "≥ 90", "unit": "%"}]}, {"smiles": "O=C(CO[C@H]1CC[C@H](Nc2ccc([N+](=O)[O-])c(C(F)(F)F)c2)CC1)N1CCN(Cc2oc3ccc(Cl)cc3c2Cl)CC1", "note": "[Compound 316, 1-[4-(3,5-dichloro-benzofuran-2-ylmethyl)-piperazin-1-yl]-2-[4-(4-nitro-3-trifluoromethyl-phenylamino)-cyclohexyloxy]-ethanone]", "values": [{"measurement": "inhibition at 5 µg/mL", "value": "≥ 90", "unit": "%"}]}, {"smiles": "O=C(CO[C@H]1CC[C@H](Nc2ccc([N+](=O)[O-])c(C(F)(F)F)c2)CC1)N1CCN(c2ccc3cc(Br)ccc3c2)CC1", "note": "[Compound 268, 1-[4-(6-bromo-naphthalen-2-yl)-piperazin-1-yl]-2-[4-(4-nitro-3-trifluoromethyl-phenylamino)-cyclohexyloxy]-ethanone]", "values": [{"measurement": "inhibition at 5 µg/mL", "value": "≥ 90", "unit": "%"}]}, {"smiles": "C[C@@H]1CN(C(=O)CO[C@H]2CC[C@H](Nc3ccc([N+](=O)[O-])c(C(F)(F)F)c3)CC2)C[C@H](C)N1c1ccc2cc(F)ccc2n1", "note": "[Compound 381, 1-[(3S,5R)-4-(6-fluoro-quinolin-2-yl)-3,5-dimethyl-piperazin-1-yl]-2-[4-(4-nitro-3-trifluoromethyl-phenylamino)-cyclohexyloxy]-ethanone]", "values": [{"measurement": "inhibition at 5 µg/mL", "value": "≥ 90", "unit": "%"}]}, {"smiles": "CC1(CN2CCN(C(=O)CO[C@H]3CC[C@H](Nc4ccc([N+](=O)[O-])c(C(F)(F)F)c4)CC3)CC2)Cc2cc(F)ccc2O1", "note": "(stereo partly drawn) [Compound 377, 1-[4-[(5-fluoro-2-methyl-3H-benzofuran-2-yl)methyl]piperazin-1-yl]-2-[4-[4-nitro-3-(trifluoromethyl)anilino]cyclohexoxy]ethanone]", "values": [{"measurement": "inhibition at 5 µg/mL", "value": "≥ 90", "unit": "%"}]}, {"smiles": "N#Cc1ccc(N[C@H]2CC[C@H](OCC(=O)N3CCN(C(=O)C4Cc5cc(Cl)ccc5O4)CC3)CC2)cc1C(F)(F)F", "note": "(stereo partly drawn) [Compound 85, 4-(4-{2-[4-(5-chloro-2,3-dihydro-benzofuran-2-carbonyl)-piperazin-1-yl]-2-oxo-ethoxy}-cyclohexylamino)-2-trifluoromethyl-benzonitrile]", "values": [{"measurement": "inhibition at 5 µg/mL", "value": "≥ 90", "unit": "%"}]}, {"smiles": "O=C(NCCO[C@H]1CC[C@H](Nc2ccc([N+](=O)[O-])c(C(F)(F)F)c2)CC1)C(=O)Nc1ccc2ccccc2n1", "note": "[Compound 238, N^1-(2-(-4-(4-nitro-3-(trifluoromethyl)phenylamino)cyclohexyloxy)ethyl)-N^2-(quinolin-2-yl)oxalamide]", "values": [{"measurement": "inhibition at 5 µg/mL", "value": "≥ 90", "unit": "%"}]}, {"smiles": "CN(c1ccc(C#N)c(C(F)(F)F)c1)[C@H]1CC[C@H](OCC(=O)N2CCN(CC3Cc4cc(F)ccc4O3)CC2)CC1", "note": "(stereo partly drawn) [Compound 280, 4-[(4-{2-[4-(5-fluoro-2,3-dihydro-benzofuran-2-ylmethyl)-piperazin-1-yl]-2-oxo-ethoxy}-cyclohexyl)-methyl-amino]-2-trifluoromethyl-benzonitrile]", "values": [{"measurement": "inhibition at 5 µg/mL", "value": "≥ 90", "unit": "%"}]}, {"smiles": "O=C(NCCO[C@H]1CC[C@H](Nc2ccc([N+](=O)[O-])c(C(F)(F)F)c2)CC1)C(=O)Nc1ccc2cc(F)ccc2n1", "note": "[Compound 239, N^1-(6-fluoroquinolin-2-yl)-N^2-(2-(-4-(4-nitro-3-(trifluoromethyl)phenylamino)cyclohexyloxy)ethyl)oxalamide]", "values": [{"measurement": "inhibition at 5 µg/mL", "value": "≥ 90", "unit": "%"}]}, {"smiles": "O=C(COc1ccc(Nc2ccc([N+](=O)[O-])c(C(F)(F)F)c2)cc1)N1CCN(CC2Cc3cc(Cl)ccc3O2)CC1", "note": "(stereo not drawn) [Compound 68, 1-[4-[(5-chloro-2,3-dihydro-1-benzofuran-2-yl)methyl]piperazin-1-yl]-2-(4-[[4-nitro-3-(trifluoromethyl)phenyl]amino]phenoxy)ethan-1-one]", "values": [{"measurement": "inhibition at 5 µg/mL", "value": "≥ 90", "unit": "%"}]}, {"smiles": "O=C(COc1ccc2ccc([N+](=O)[O-])c(C(F)(F)F)c2c1)N1CCN(c2ccc3cc(C(F)(F)F)ccc3n2)CC1", "note": "[Compound 131, 2-[[7-nitro-8-(trifluoromethyl)naphthalen-2-yl]oxy]-1-[4-[6-(trifluoromethyl)quinolin-2-yl]piperazin-1-yl]ethan-1-one]", "values": [{"measurement": "inhibition at 5 µg/mL", "value": "≥ 90", "unit": "%"}]}, {"smiles": "O=C(CO[C@H]1CC[C@H](Nc2ccc([N+](=O)[O-])c(C(F)(F)F)c2)CC1)N1CCN(c2nc3cc(OC(F)(F)F)ccc3o2)CC1", "note": "[Compound 401, 2-[4-(4-nitro-3-trifluoromethyl-phenylamino)-cyclohexyloxy]-1-[4-(5-trifluoromethoxy-benzooxazol-2-yl)-piperazin-1-yl]-ethanone]", "values": [{"measurement": "inhibition at 5 µg/mL", "value": "≥ 90", "unit": "%"}]}, {"smiles": "C[C@@H]1CN(C(=O)CO[C@H]2CC[C@H](Nc3ccc([N+](=O)[O-])c(C(F)(F)F)c3)CC2)C[C@H](C)N1Cc1ccc2cc(F)ccc2c1", "note": "[Compound 372, 1-[(3S,5R)-4-(6-fluoro-naphthalen-2-ylmethyl)-3,5-dimethyl-piperazin-1-yl]-2-[4-(4-nitro-3-trifluoromethyl-phenylamino)-cyclohexyloxy]-ethanone]", "values": [{"measurement": "inhibition at 5 µg/mL", "value": "≥ 90", "unit": "%"}]}, {"smiles": "O=C(CO[C@H]1CC[C@H](Nc2ccc([N+](=O)[O-])c(C(F)(F)F)c2)CC1)N1CCN(Cc2oc3ccc(F)cc3c2Cl)CC1", "note": "[Compound 312, 1-[4-(3-chloro-5-fluoro-benzofuran-2-ylmethyl)-piperazin-1-yl]-2-[4-(4-nitro-3-trifluoromethyl-phenylamino)-cyclohexyloxy]-ethanone]", "values": [{"measurement": "inhibition at 5 µg/mL", "value": "≥ 90", "unit": "%"}]}, {"smiles": "C[C@@H]([C@@H]1Cc2cc(F)ccc2O1)N1CCN(C(=O)COC2CCC(Nc3ccc([N+](=O)[O-])c(C(F)(F)F)c3)CC2)CC1", "note": "(relative stereo) [Compound 260-10, 1-(4-((S)-1-((S)-5-fluoro-2,3-dihydrobenzofuran-2-yl)ethyl)piperazin-1-yl)-2-(4-(4-nitro-3-(trifluoromethyl)phenylamino)cyclohexyloxy)ethanone]", "values": [{"measurement": "inhibition at 5 µg/mL", "value": "≥ 90", "unit": "%"}]}, {"smiles": "O=C(CO[C@H]1CC[C@H](Nc2ccc([N+](=O)[O-])c(C(F)(F)F)c2)CC1)N1CCN(Cc2cc3cc(F)cc(F)c3o2)CC1", "note": "[Compound 375]", "values": [{"measurement": "inhibition at 5 µg/mL", "value": "≥ 90", "unit": "%"}]}, {"smiles": "CC(CN1CCN(c2ccc3cc(F)ccc3c2)CC1)C(=O)N1CCC(Nc2ccc([N+](=O)[O-])c(C(F)(F)F)c2)CC1", "note": "(stereo not drawn) [Compound 16, 3-[4-(6-fluoronaphthalen-2-yl)piperazin-1-yl]-2-methyl-1-(4-[[4-nitro-3-(trifluoromethyl)phenyl]amino]piperi-din-1-yl)propan-1-one]", "values": [{"measurement": "inhibition at 5 µg/mL", "value": "≥ 90", "unit": "%"}]}, {"smiles": "O=C(CO[C@H]1CC[C@H](Nc2ccc([N+](=O)[O-])c(C(F)(F)F)c2)CC1)N1CCN(Cc2cc3c(Cl)cc(Cl)cc3o2)CC1", "note": "[Compound 318, 2-[(4-[[4-nitro-3-(trifluoromethyl)phenyl]amino]cyclohexyl)-oxy]1-[4-(4,6-dichlorobenzofuran-2-ylmethyl)piperazin-1-yl]ethan-1-one]", "values": [{"measurement": "inhibition at 5 µg/mL", "value": "≥ 90", "unit": "%"}]}, {"smiles": "N#Cc1ccc(N[C@H]2CC[C@H](OCC(=O)N3CCN(C(=O)C4Cc5cc(F)ccc5O4)CC3)CC2)cc1C(F)(F)F", "note": "(stereo partly drawn) [Compound 86, 4-(4-{2-[4-(5-fluoro-2,3-dihydro-benzofuran-2-carbonyl)-piperazin-1-yl]-2-oxo-ethoxy}-cyclohexylamino)-2-trifluoromethyl-benzonitrile]", "values": [{"measurement": "inhibition at 5 µg/mL", "value": "≥ 90", "unit": "%"}]}, {"smiles": "C[C@@H]1CN(Cc2nc3cc(C(F)(F)F)ccc3s2)[C@@H](C)CN1C(=O)CO[C@H]1CC[C@H](Nc2ccc([N+](=O)[O-])c(C(F)(F)F)c2)CC1", "note": "[Compound 365, 1-[(2R,5S)-2,5-dimethyl-4-(5-trifluoromethyl-benzothiazol-2-ylmethyl)-piperazin-1-yl]-2-[4-(4-nitro-3-trifluoromethyl-phenylamino)-cyclohexyloxy]-ethanone]", "values": [{"measurement": "inhibition at 5 µg/mL", "value": "≥ 90", "unit": "%"}]}, {"smiles": "O=C(CO[C@H]1CC[C@H](Nc2ccc([N+](=O)[O-])c(C(F)(F)F)c2)CC1)N1CCN(c2nc3cc(C(F)(F)F)ccc3o2)CC1", "note": "[Compound 400, 2-[4-(4-nitro-3-trifluoromethyl-phenylamino)-cyclohexyloxy]-1-[4-(5-trifluoromethyl-benzooxazol-2-yl)-piperazin-1-yl]-ethanone]", "values": [{"measurement": "inhibition at 5 µg/mL", "value": "≥ 90", "unit": "%"}]}, {"smiles": "C[C@@H]1CN(C(=O)CO[C@H]2CC[C@H](Nc3ccc([N+](=O)[O-])c(C(F)(F)F)c3)CC2)C[C@H](C)N1Cc1ccc2cc(C(F)(F)F)ccc2c1", "note": "[Compound 374, 1-[(3S,5R)-3,5-dimethyl-4-(6-trifluoromethyl-naphthalen-2-ylmethyl)-piperazin-1-yl]-2-[4-(4-nitro-3-trifluoromethyl-phenylamino)-cyclohexyloxy]-ethanone]", "values": [{"measurement": "inhibition at 5 µg/mL", "value": "≥ 90", "unit": "%"}]}, {"smiles": "C[C@@H]1CN(Cc2nc3cc(F)ccc3s2)[C@@H](C)CN1C(=O)CO[C@H]1CC[C@H](Nc2ccc([N+](=O)[O-])c(C(F)(F)F)c2)CC1", "note": "[Compound 370, 1-[(2R,5S)-4-(5-fluoro-benzothiazol-2-ylmethyl)-2,5-dimethyl-piperazin-1-yl]-2-[4-(4-nitro-3-trifluoromethyl-phenylamino)-cyclohexyloxy]-ethanone]", "values": [{"measurement": "inhibition at 5 µg/mL", "value": "≥ 90", "unit": "%"}]}, {"smiles": "O=C(COC1CCC(Oc2ccc([N+](=O)[O-])c(C(F)(F)F)c2)CC1)N1CCN(Cc2nc3cc(C(F)(F)F)ccc3s2)CC1", "note": "(stereo not drawn) [Compound 311, 2-[4-(4-nitro-3-trifluoromethyl-phenoxy)-cyclohexyloxy]-1-[4-(5-trifluoromethyl-benzothiazol-2-ylmethyl)-piperazin-1-yl]-ethanone]", "values": [{"measurement": "inhibition at 5 µg/mL", "value": "≥ 90", "unit": "%"}]}]}
